Measured values as given in patent US8829185B2 (Bayer HealthCare LLC, priority 2005, dated 2014).

Each molecule was assayed against T1, FGFR1-GST (Homo sapiens, UniProt P11362) (assay: FGFR-1 TR-FRET biochemical assay). Conditions: bounds given in nM.
T1 construct: GST; made in house
T1 sequence (P11362 22-822): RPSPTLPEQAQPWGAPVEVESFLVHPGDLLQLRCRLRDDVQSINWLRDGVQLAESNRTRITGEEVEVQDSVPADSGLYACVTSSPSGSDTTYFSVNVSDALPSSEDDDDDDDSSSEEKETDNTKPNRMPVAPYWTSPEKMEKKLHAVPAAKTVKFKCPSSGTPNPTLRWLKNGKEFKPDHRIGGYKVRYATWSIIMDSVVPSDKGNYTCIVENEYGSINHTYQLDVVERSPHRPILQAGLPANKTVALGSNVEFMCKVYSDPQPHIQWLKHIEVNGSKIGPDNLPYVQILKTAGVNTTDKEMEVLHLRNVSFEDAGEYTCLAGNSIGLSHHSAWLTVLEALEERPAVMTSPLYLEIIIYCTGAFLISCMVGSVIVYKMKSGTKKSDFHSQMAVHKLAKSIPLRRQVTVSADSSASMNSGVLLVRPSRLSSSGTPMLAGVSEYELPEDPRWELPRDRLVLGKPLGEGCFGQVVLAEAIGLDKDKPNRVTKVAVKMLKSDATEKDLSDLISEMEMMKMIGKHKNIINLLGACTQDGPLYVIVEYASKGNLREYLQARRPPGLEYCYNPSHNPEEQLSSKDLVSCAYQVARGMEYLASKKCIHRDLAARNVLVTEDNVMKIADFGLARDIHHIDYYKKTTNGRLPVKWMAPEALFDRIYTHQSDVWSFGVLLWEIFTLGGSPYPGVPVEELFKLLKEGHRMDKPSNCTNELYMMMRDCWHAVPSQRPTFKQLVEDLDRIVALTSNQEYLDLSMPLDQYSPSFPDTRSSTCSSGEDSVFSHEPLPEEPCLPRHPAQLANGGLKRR
Protocol: FGFR-1 TR-FRET Biochemical Assay
The FGFR-1 Assay was performed on half well 96-well opaque plates (Costar 3915) in a LANCE format. LANCE is a homogenous time resolved fluormetry based application available through Perkin Elmer. For this assay, 50 uL reactions were set up using: 0.6 uM ATP (Sigma), 25 nM poly GT-biotin (CIS BIO International), 2 nM Eu-labelled phospho-Tyr Ab (PY20 PerkinElmer), 10 nM Streptavidin-APC (Perkin Elmer), 5 nM FGFR1-GST (generated by DRT, Bayer Healthcare), 1% DMSO, 50 mM HEPES pH 7.5, 10 mM MgCl2, 0.1 mM EDTA, 0.015% Brij, 0.1 mg/ml BSA, 0.1% B-mercaptoethanol. All reactions were initiated with the addition of enzyme and were left to incubate for one hour at room temperature. Time-resolved fluorescence was then read on a Perkin Elmer VictorV Multilabel counter. The reading protocol uses an excitation wavelength at 340 nm and emission reads at both 615 and 665 nm. Signal was calculated as a ratio: (Fluorescence at 665 nm/Fluorescence at […])*10000 for each well. The background control used for this assay is the signal produced with all assay components excluding ATP. For IC50 generation, compounds were added prior to the enzyme initiation. A 50-fold stock plate was made with compounds serially diluted 1:5 in a 50% DMSO/50% dH2O solution. A 1 μL addition of the stock to the assay wells gave final compound concentrations ranging from 10 μM −0.128 nM in 1% DMSO. The data were expressed as percent inhibition: % inhibition=100−((Signal with inhibitor-background)/(Signal without inhibitor−background))*100.
`CC(=O)c1c(-c2ccc(NC(=O)Nc3cc(C(F)(F)F)ccn3)c(F)c2)c2c(N)ncnn2c1CN1CCOCC1` [Example 60, N-4-[6-acetyl-4-amino-7-(morpholin-4-ylmethyl)pyrrolo[2,1-f][1,2,4]triazin-5-yl]-2-fluorophenyl-N′-[4-(trifluoromethyl)pyridin-2-yl]urea] was tested, and the IC50 was < 10 nM.
In the case of `Nc1ncnn2c(CN3CCOCC3)c(C(F)F)c(-c3ccc(NC(=O)Nc4cc(C(F)(F)F)ccc4F)c(F)c3)c12` [Example 99, N-{4-[4-amino-6-(difluoromethyl)-7-(morpholin-4-ylmethyl)-pyrrolo[2,1-f][1,2,4]triazin-5-yl]-2-fluorophenyl}-N′-[2-fluoro-5-(trifluoromethyl)phenyl]urea], the IC50 is reported as 10 to 100 nM.
`CC(O)c1c(-c2ccc(NC(=O)Nc3cc(C(F)(F)F)ccc3F)cc2)c2c(N)ncnn2c1CN1CCOCC1` (centres unmarked) [Example 104, N-4-[4-amino-6-(1-hydroxyethyl)-7-(morpholin-4-ylmethyl)-pyrrolo[2,1-f][1,2,4]triazin-5-yl]phenyl-N′-[2-fluoro-5-(trifluoromethyl)-phenyl]urea] was tested, and the IC50 was 10 to 100 nM.
`COCc1c(-c2ccc(NC(=O)Nc3cc(C(C)(C)C)ccn3)c(F)c2)c2c(N)ncnn2c1CN1CCOCC1` [Example 135, N-{4-[4-amino-6-(methoxymethyl)-7-(morpholin-4-ylmethyl)-pyrrolo[2,1-f][1,2,4]triazin-5-yl]-2-fluorophenyl}-N′-(4-tert-butylpyridin-2-yl)urea] was tested, and the IC50 was < 10 nM.
For `N#CCc1c(-c2ccc(NC(=O)Nc3cc(C(F)(F)F)ccc3F)c(F)c2)c2c(N)ncnn2c1CN1CCS(=O)(=O)CC1` [Example 79, N-(4-{4-amino-6-(cyanomethyl)-7-[(1,1-dioxidothiomorpholin-4-yl)methyl]pyrrolo[2,1-f][1,2,4]triazin-5-yl}-2-fluorophenyl)-N′-[2-fluoro-5-(trifluoromethyl)phenyl]urea], the IC50 was < 10 nM.
`CCOC(=O)c1c(-c2ccc(NC(=O)Nc3cc(C(F)(F)F)ccn3)cc2)c2c(N)ncnn2c1-c1cccc(F)c1` [Example 1, Ethyl 4-amino-7-(3-fluorophenyl)-5-{4-[({[4-(trifluoromethyl)pyridin-2-yl]amino}carbonyl)amino]phenyl}-pyrrolo[2,1-f][1,2,4]triazine-6-carboxylate] showed an IC50 of 10 to 100 nM.
With `COCc1c(-c2ccc(NC(=O)Nc3cc(C(F)(F)F)ccc3F)c(F)c2)c2c(N)ncnn2c1CN1CCOCC1` [Example 45, N-{4-[4-amino-6-(methoxymethyl)-7-(morpholin-4-ylmethyl)pyrrolo[2,1-f][1,2,4]triazin-5-yl]-2-fluorophenyl}-N′-[2-fluoro-5-(trifluoromethyl)phenyl]urea] the IC50 was < 10 nM.
`N#CCc1c(-c2ccc(NC(=O)Nc3cc(C(F)(F)F)ccc3F)cc2)c2c(N)ncnn2c1CN1CCNC(=O)C1` [Example 70, N-(4-{4-amino-6-(cyanomethyl)-7-[(3-oxopiperazin-1-yl)methyl]pyrrolo[2,1-f][1,2,4]triazin-5-yl}phenyl)-N′-[2-fluoro-5-(trifluoromethyl)phenyl]urea] was tested, and the IC50 was < 10 nM.
In the case of `Nc1ncnn2c(CN3CCOCC3)c(-c3cnco3)c(-c3ccc(NC(=O)Nc4cc(F)cc(C(F)(F)F)c4)cc3)c12` [Example 29, N-4-[4-amino-7-(morpholin-4-ylmethyl)-6-(1,3-oxazol-5-yl)pyrrolo[2,1-f][1,2,4]triazin-5-yl]phenyl-N′-[3-fluoro-5-(trifluoromethyl)phenyl]urea], the IC50 is reported as < 10 nM.
In the case of `Cc1c(-c2ccc(NC(=O)Nc3cc(C(F)(F)F)ccc3F)cc2)c2c(N)ncnn2c1CN1CCCOCC1` [Example 117, N-{4-[4-amino-6-methyl-7-(1,4-oxazepan-4-ylmethyl)pyrrolo[2,1-f][1,2,4]triazin-5-yl]phenyl}-N′-[2-fluoro-5-(trifluoromethyl)phenyl]urea], the IC50 is reported as < 10 nM.
`Nc1ncnn2c(CN3CCOCC3)c(Cl)c(-c3ccc(NC(=O)Nc4cc(C(F)(F)F)ccc4F)c(F)c3)c12` [Example 152, N-{4-[4-amino-6-chloro-7-(morpholin-4-ylmethyl)pyrrolo[2,1-f][1,2,4]triazin-5-yl]-2-fluorophenyl}-N′-[2-fluoro-5-(trifluoromethyl)-phenyl]urea] was tested, and the IC50 was 10 to 100 nM.
Work on `COCc1c(-c2ccc(NC(=O)Nc3cc(C(F)(F)F)ccc3F)c(F)c2)c2c(N)ncnn2c1C1CCNCC1` [Example 149, 1-{4-[4-amino-6-(methoxymethyl)-7-piperidin-4-ylpyrrolo[2,1-f][1,2,4]triazin-5-yl]-2-fluorophenyl}-3-[2-fluoro-5-(trifluoro-methyl)phenyl]urea] yielded an IC50 of 10 to 100 nM.
For `Nc1ncnn2c(CN3CCOCC3)c(Cl)c(-c3ccc(NC(=O)Nc4cc(C(F)(F)F)ccn4)c(F)c3)c12` [Example 158, N-{4-[4-amino-6-chloro-7-(morpholin-4-ylmethyl)pyrrolo[2,1-f][1,2,4]triazin-5-yl]-2-fluorophenyl}-N′-[4-(trifluoromethyl)pyridin-2-yl]urea], the IC50 was < 10 nM.
With `COCc1c(-c2ccc(NC(=O)Nc3cc(C(F)(F)F)ccn3)cc2)c2c(N)ncnn2c1CN1CCN(C(C)=O)CC1` [Example 37, N-4-[7-[(4-acetylpiperazin-1-yl)methyl]-4-amino-6-(methoxy-methyl)pyrrolo[2,1-f][1,2,4]triazin-5-yl]phenyl-N′-[4-(trifluoromethyl)pyridin-2-yl]urea] the IC50 was 10 to 100 nM.
`COCc1c(-c2ccc(NC(=O)Nc3cc(C(F)(F)F)ccc3Cl)c(F)c2)c2c(N)ncnn2c1CN1CCOCC1` [Example 142, N-{4-[4-amino-6-(methoxymethyl)-7-(morpholin-4-ylmethyl)-pyrrolo[2,1-f][1,2,4]triazin-5-yl]-2-fluorophenyl}-N′-[2-chloro-5-(trifluoromethyl)phenyl]urea] gave an IC50 of 10 to 100 nM.
For `N#CCc1c(-c2ccc(NC(=O)Nc3cc(C(F)(F)F)ccn3)cc2)c2c(N)ncnn2c1CN1CCNC(=O)C1` [Example 66, N-(4-{4-amino-6-(cyanomethyl)-7-[(3-oxopiperazin-1-yl)methyl]-pyrrolo[2,1-f][1,2,4]triazin-5-yl}phenyl)-N′-[4-(trifluoromethyl)pyridin-2-yl]urea], the IC50 was < 10 nM.
In the case of `Nc1ncnn2c(CN3CCOCC3)c(CO)c(-c3ccc(NC(=O)Nc4cc(C(F)(F)F)ccn4)c(F)c3)c12` [Example 114, N-{4-[4-amino-6-(hydroxymethyl)-7-(morpholin-4-ylmethyl)pyrrolo[2,1-f][1,2,4]triazin-5-yl]-2-fluorophenyl}-N′-[4-(trifluoromethyl)pyridin-2-yl]urea], the IC50 is reported as 10 to 100 nM.
`Nc1ncnn2c(CN3CCOCC3)c(-c3cnco3)c(-c3ccc(NC(=O)Nc4cc(C(F)(F)F)ccn4)cc3)c12` [Example 27, N-4-[4-amino-7-(morpholin-4-ylmethyl)-6-(1,3-oxazol-5-yl)pyrrolo[2,1-f][1,2,4]triazin-5-yl]phenyl-N′-[4-(trifluoromethyl)pyridin-2-yl]urea] was tested, and the IC50 was < 10 nM.
`COCCN(C)Cc1c(-c2ccc(NC(=O)Nc3cc(C(F)(F)F)ccc3F)cc2)c2c(N)ncnn2c1CN1CCOCC1` [Example 110, N-4-[4-amino-6-[(2-methoxyethyl)(methyl)-amino]methyl-7-(morpholin-4-ylmethyl)pyrrolo[2,1-f][1,2,4]triazin-5-yl]phenyl-N′-[2-fluoro-5-(trifluoromethyl)phenyl]urea] was tested, and the IC50 was > 100 nM.
In the case of `CON(C)C(=O)c1c(-c2ccc(NC(=O)Nc3cc(C(F)(F)F)ccn3)cc2)c2c(N)ncnn2c1CN1CCOCC1` [Example 97, 4-amino-N-methoxy-N-methyl-7-(morpholin-4-ylmethyl)-5-{4-[({[4-(trifluoromethyl)pyridin-2-yl]amino}carbonyl)-amino]phenyl}pyrrolo[2,1-f][1,2,4]triazine-6-carboxamide], the IC50 is reported as > 100 nM.
With `N#CCc1c(-c2ccc(NC(=O)Nc3cc(C(F)(F)F)ccc3F)cc2)c2c(N)ncnn2c1CN1CCOCC1` [Example 68, N-{4-[4-amino-6-(cyanomethyl)-7-(morpholin-4-ylmethyl)-pyrrolo[2,1-f][1,2,4]triazin-5-yl]phenyl}-N′-[2-fluoro-5-(trifluoromethyl)-phenyl]urea] the IC50 was < 10 nM.
`Nc1ncnn2c(CN3CCOCC3)c(C(F)F)c(-c3ccc(NC(=O)Nc4cc(C(F)(F)F)ccn4)c(F)c3)c12` [Example 116, N-{4-[4-amino-6-(difluoromethyl)-7-(morpholin-4-ylmethyl)-pyrrolo[2,1-f][1,2,4]triazin-5-yl]-2-fluorophenyl}-N′-[4-(trifluoromethyl)pyridin-2-yl]urea] was tested, and the IC50 was < 10 nM.
Molecule `COCc1c(-c2ccc(NC(=O)Nc3cc(C(F)(F)F)ccc3F)c(F)c2)c2c(N)ncnn2c1CN1CCS(=O)(=O)CC1` [Example 43, N-{4-[4-amino-7-[(1,1-dioxidothiomorpholin-4-yl)methyl]-6-(methoxymethyl)pyrrolo[2,1-f][1,2,4]triazin-5-yl]-2-fluorophenyl}-N′-[2-fluoro-5-(trifluoromethyl)phenyl]urea] has an IC50 of 10 to 100 nM.
Molecule `CN1CCN(Cc2c(CC#N)c(-c3ccc(NC(=O)Nc4cc(C(F)(F)F)ccc4F)cc3)c3c(N)ncnn23)CC1` [Example 74, N-(4-{4-amino-6-(cyanomethyl)-7-[(4-methylpiperazin-1-yl)methyl]pyrrolo[2,1-f][1,2,4]triazin-5-yl}phenyl)-N′-[2-fluoro-5-(trifluoromethyl)phenyl]urea] has an IC50 of 10 to 100 nM.

Same assay, conditions: upper bound in μM
`COCCN(C)Cc1c(-c2ccc(NC(=O)Nc3cc(C(F)(F)F)ccc3F)cc2)c2c(N)ncnn2c1CN1CCOCC1` [Example 110, N-4-[4-amino-6-[(2-methoxyethyl)(methyl)-amino]methyl-7-(morpholin-4-ylmethyl)pyrrolo[2,1-f][1,2,4]triazin-5-yl]phenyl-N′-[2-fluoro-5-(trifluoromethyl)phenyl]urea] was tested, and the IC50 was < 1000 nM.
With `CON(C)C(=O)c1c(-c2ccc(NC(=O)Nc3cc(C(F)(F)F)ccn3)cc2)c2c(N)ncnn2c1CN1CCOCC1` [Example 97, 4-amino-N-methoxy-N-methyl-7-(morpholin-4-ylmethyl)-5-{4-[({[4-(trifluoromethyl)pyridin-2-yl]amino}carbonyl)-amino]phenyl}pyrrolo[2,1-f][1,2,4]triazine-6-carboxamide] the IC50 was < 1000 nM.
